Measured values: ChEMBL document CHEMBL1909294, “Translating clinical findings into knowledge in drug safety evaluation--drug induced liver injury prediction system (DILIps)” (PLoS Comput Biol, 2011)

Assays:
[1] = system: Hepatotoxicity;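 for HepSE bilirubinemia: bilirubinemia hepatic side effect score drawn from the DILIps training data, a prediction system for drug-induced liver injury; call rule not given here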;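 for HepSE cholecystitis: Cholecystitis-related hepatic side effect score drawn from the DILIps (drug-induced liver injury prediction) training data set; call rule not given here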;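 for HepSE cholelithiasis: hepatic side effect score for cholelithiasis, drawn from the DILIps training data for predicting drug-induced liver injury; call rule not given here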;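 for HepSE cirrhosis: cirrhosis hepatic side effect score taken from the DILIps (drug-induced liver injury prediction) training set; call rule not given here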;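 for HepSE elevated liver function tests: hepatic side effect score for raised liver function tests, as recorded in the DILIps training set used for predicting drug-induced liver injury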; for HepSE hepatic failure: call rule not given here;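 for HepSE hepatomegaly: hepatic side effect score for hepatomegaly, taken from the training set of the DILIps drug-induced liver injury prediction system; call rule not given here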
[2] = system: Hepatotoxicity; remark: listed apart in the source;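 for HepSE bilirubinemia: bilirubinemia hepatic side effect score drawn from the DILIps training data, a prediction system for drug-induced liver injury; call rule not given here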;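 for HepSE cholecystitis: Cholecystitis-related hepatic side effect score drawn from the DILIps (drug-induced liver injury prediction) training data set; call rule not given here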;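 for HepSE cholelithiasis: hepatic side effect score for cholelithiasis, drawn from the DILIps training data for predicting drug-induced liver injury; call rule not given here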;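 for HepSE cirrhosis: cirrhosis hepatic side effect score taken from the DILIps (drug-induced liver injury prediction) training set; call rule not given here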;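 for HepSE elevated liver function tests: hepatic side effect score for raised liver function tests, as recorded in the DILIps training set used for predicting drug-induced liver injury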; for HepSE hepatic failure: call rule not given here
[3] = system: Hepatotoxicity; remark: listed apart in the source;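 for HepSE bilirubinemia: bilirubinemia hepatic side effect score drawn from the DILIps training data, a prediction system for drug-induced liver injury; call rule not given here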;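 for HepSE cholecystitis: Cholecystitis-related hepatic side effect score drawn from the DILIps (drug-induced liver injury prediction) training data set; call rule not given here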;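 for HepSE cholelithiasis: hepatic side effect score for cholelithiasis, drawn from the DILIps training data for predicting drug-induced liver injury; call rule not given here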;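 for HepSE cirrhosis: cirrhosis hepatic side effect score taken from the DILIps (drug-induced liver injury prediction) training set; call rule not given here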;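 for HepSE elevated liver function tests: hepatic side effect score for raised liver function tests, as recorded in the DILIps training set used for predicting drug-induced liver injury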; for HepSE hepatic failure: call rule not given here
[4] = system: Hepatotoxicity; remark: listed apart in the source;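 for HepSE bilirubinemia: bilirubinemia hepatic side effect score drawn from the DILIps training data, a prediction system for drug-induced liver injury; call rule not given here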;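 for HepSE cholecystitis: Cholecystitis-related hepatic side effect score drawn from the DILIps (drug-induced liver injury prediction) training data set; call rule not given here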;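 for HepSE cholelithiasis: hepatic side effect score for cholelithiasis, drawn from the DILIps training data for predicting drug-induced liver injury; call rule not given here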;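 for HepSE cirrhosis: cirrhosis hepatic side effect score taken from the DILIps (drug-induced liver injury prediction) training set; call rule not given here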;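 for HepSE elevated liver function tests: hepatic side effect score for raised liver function tests, as recorded in the DILIps training set used for predicting drug-induced liver injury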; for HepSE hepatic failure: call rule not given here
[5] = system: Hepatotoxicity; remark: listed apart in the source; for HepSE hepatic failure: call rule not given here
[6] = system: Hepatotoxicity; remark: listed apart in the source; for HepSE hepatic failure: call rule not given here
[7] = system: Hepatotoxicity; remark: listed apart in the source
[8] = system: Hepatotoxicity; remark: listed apart in the source
[9] = system: Hepatotoxicity; remark: listed apart in the source
[10] = system: Hepatotoxicity; remark: listed apart in the source
[11] = system: Hepatotoxicity; remark: listed apart in the source
[12] = system: Hepatotoxicity; remark: listed apart in the source
[13] = system: Hepatotoxicity; remark: listed apart in the source
[14] = system: Hepatotoxicity; remark: listed apart in the source

| Molecule | HepSE_bilirubinemia [1] | HepSE_cholecystitis [2] | HepSE_cholelithiasis [3] | HepSE_cirrhosis [4] | HepSE_elevated liver function tests [5] | HepSE_hepatic failure [6] | HepSE_hepatic necrosis [7] | HepSE_hepatitis [8] | HepSE_hepatomegaly [9] | HepSE_jaundice [10] | HepSE_liver disease [11] | HepSE_liver fatty [12] | HepSE_liver function tests abnormal [13] | HepSE_Combined Scores [14] | other results |
| --- | --- | --- | --- | --- | --- | --- | --- | --- | --- | --- | --- | --- | --- | --- | --- |
| CNC(=O)c1cc(Oc2ccc(NC(=O)Nc3ccc(Cl)c(C(F)(F)F)c3)cc2)ccn1 [SORAFENIB] | 0 | 1 | 0 | 0 | 0 | 0 | 0 | 0 | 0 | 1 | 0 | 0 | 0 | 2 |  |
| CCN(CCO)CCCC(C)Nc1ccnc2cc(Cl)ccc12 (stereo unspecified) [HYDROXYCHLOROQUINE] | 0 | 0 | 0 | 0 | 0 | 1 | 0 | 0 | 0 | 0 | 0 | 0 | 0 | 1 |  |
| Nc1cccc2c1CN(C1CCC(=O)NC1=O)C2=O (stereo unspecified) [LENALIDOMIDE] | 1 | 1 | 0 | 0 | 0 | 1 | 0 | 0 | 0 | 0 | 0 | 0 | 1 | 4 |  |
| COc1ccc(-c2ccc3cc(C(=O)O)ccc3c2)cc1C12CC3CC(CC(C3)C1)C2 | 0 | 0 | 0 | 0 | 0 | 0 | 0 | 1 | 0 | 0 | 0 | 0 | 0 | 1 |  |
| AURANOFIN | 0 | 0 | 0 | 0 | 0 | 0 | 0 | 0 | 0 | 1 | 0 | 0 | 0 | 1 |  |
| Cc1cccc([C@H](C)c2cnc[nH]2)c1C [DEXMEDETOMIDINE] |  |  |  |  |  |  |  |  |  |  |  |  |  |  | HepSE_bilirubinemia ([1]; Liver): 1; HepSE_cholecystitis ([2]; Liver): 0; HepSE_cholelithiasis ([3]; Liver): 0; HepSE_cirrhosis ([4]; Liver): 0; HepSE_elevated liver function tests ([5]; Liver): 0; HepSE_hepatic failure ([6]; Liver): 0; HepSE_hepatic necrosis ([7]; Liver): 0; HepSE_hepatitis ([8]; Liver): 0; HepSE_hepatomegaly ([9]; Liver): 0; HepSE_jaundice ([10]; Liver): 0; HepSE_liver disease ([11]; Liver): 0; HepSE_liver fatty ([12]; Liver): 0; HepSE_liver function tests abnormal ([13]; Liver): 0; HepSE_Combined Scores ([14]; Liver): 1 |
| Cc1[nH]c(=O)c(C#N)cc1-c1ccncc1 [MILRINONE] | 0 | 0 | 0 | 0 | 0 | 0 | 0 | 0 | 0 | 0 | 0 | 0 | 0 | 0 |  |
| COc1ccccc1OCC(O)CN1CCN(CC(=O)Nc2c(C)cccc2C)CC1 (stereo unspecified) [RANOLAZINE] | 0 | 0 | 0 | 0 | 0 | 0 | 0 | 0 | 0 | 0 | 0 | 0 | 0 | 0 |  |
| CCn1cc(C(=O)O)c(=O)c2cc(F)c(N3CCNCC3)cc21 [NORFLOXACIN] |  |  |  |  |  |  |  |  |  |  |  |  |  |  | HepSE_bilirubinemia ([1]; Liver): 0; HepSE_cholecystitis ([2]; Liver): 0; HepSE_cholelithiasis ([3]; Liver): 0; HepSE_cirrhosis ([4]; Liver): 0; HepSE_elevated liver function tests ([5]; Liver): 1; HepSE_hepatic failure ([6]; Liver): 1; HepSE_hepatic necrosis ([7]; Liver): 1; HepSE_hepatitis ([8]; Liver): 1; HepSE_hepatomegaly ([9]; Liver): 0; HepSE_jaundice ([10]; Liver): 1; HepSE_liver disease ([11]; Liver): 0; HepSE_liver fatty ([12]; Liver): 0; HepSE_liver function tests abnormal ([13]; Liver): 0; HepSE_Combined Scores ([14]; Liver): 5 |
